Measurements taken from patent US7285566B2, “Resistance-repellent retroviral protease inhibitors” (priority 2002, dated 2007).

Tests used:
[1] = system: highly cross-resistant clinical HIV-1 strains; test: In vitro activity against highly PI-resistant clinical HIV-1 strains from AIDS patients; type: cell-based; settings: for potency against the multidrug resistant strains of HIV: multidrug resistant vs wild type strains
Protocol: The sensitivities of HIV-1LAI, HIV-1Ba-L, HIV-2EHO and the primary HIV-1 isolates against various drugs were determined as previously described with minor modifications (Shiraska et al., Proc. Natl. Acad. Sci. USA, 92, 2398-2402 (1995)).

HIV-1UIC-P62 = test: Sensitivity of compound 1-selected HIV-1 (passage 62) to PIs; type: cell-based; settings: for sensitivity compared with the parental HIV-1NL4-3: HIV-1UIC-P62; for IC50 fold greater than that of HIV-1NL4-3: HIV-1UIC-P62 (passage 62 with 2 μM 1) vs parental HIV-1NL4-3
D30N mutant HIV protease = D30N mutant HIV protease (Human immunodeficiency virus type 1 group M subtype B, UniProt P03367, D530N); test: Effect of D30N protease mutation on inhibitor binding

Row | SMILES | potency against the multidrug resistant strains of HIV [1] | sensitivity compared with the parental HIV-1NL4-3 (HIV-1UIC-P62) | effect of D30N mutation on binding (D30N mutant HIV protease) | IC50 fold greater than that of HIV-1NL4-3 (HIV-1UIC-P62) [fold] | level of resistance of the clinical strains ([1]; compared to wild-type clinical strain HIV-1ERS104pre)
1 | CC(C)c1nc(CN(C)C(=O)N[C@H](C(=O)N[C@@H](Cc2ccccc2)C[C@H](O)[C@H](Cc2ccccc2)NC(=O)OCc2cncs2)C(C)C)cs1 [Compound 5, Ritonavir] | dramatically less potent | as sensitive | – | – | –
2 | COc1ccc(S(=O)(=O)N(CC(C)C)C[C@@H](O)[C@H](Cc2ccccc2)NC(=O)O[C@H]2CO[C@H]3OCC[C@H]32)cc1 [Compound 1] | – | – | no effect | – | –
3 | Cc1c(O)cccc1C(=O)N[C@@H](CSc1ccccc1)[C@H](O)CN1C[C@H]2CCCC[C@H]2C[C@H]1C(=O)NC(C)(C)C [Compound 7, Nelfinavir] | dramatically less potent | – | – | 5 | –
4 | CC(C)(C)NC(=O)[C@@H]1C[C@@H]2CCCC[C@@H]2CN1C[C@@H](O)[C@H](Cc1ccccc1)NC(=O)[C@H](CC(N)=O)NC(=O)c1ccc2ccccc2n1 [Compound 4, Saquinavir] | dramatically less potent | as sensitive | – | – | 3-31 fold
5 | CC(C)CN(C[C@@H](O)[C@H](Cc1ccccc1)NC(=O)O[C@H]1CCOC1)S(=O)(=O)c1ccc(N)cc1 [Compound 2, Amprenavir] | dramatically less potent | – | – | – | –
6 | CC(C)(C)NC(=O)[C@@H]1CN(Cc2cccnc2)CCN1C[C@@H](O)C[C@@H](Cc1ccccc1)C(=O)N[C@H]1c2ccccc2C[C@H]1O [Compound 6, Indinavir] | dramatically less potent | – | – | 7 | –
